# Reference: patent publication US4254115A, “Phospholipid derivative with an antilipemic and antiarteriosclerotic effect” (A. Nattermann & Cie. GmbH, priority 1979, dated 1981)
# Like-named read-outs stand apart in the source and are kept apart here.
# Columns and labels:
# [1] = system: triton-WR 1339 hyperlipemia (serum lipids); assay: Acute triton test (1 × prophylactic application) on rats; format: in vivo
# Experimental: (a) Prophylactic application
# The n-oleyl derivative (i.e., n-oleyl cephalin) was orally administered to the test animals. […] Forty-eight hours after the triton application, serum was analyzed for lipids and compared with a control group.
# rat = assay: Acute toxicity, rat; format: in vivo
# Acute toxicity, rat = format: in vivo; conditions: in vivo
# [2] = system: triton-WR 1339 hyperlipemia (serum lipids); assay: Acute triton test (1 × therapeutic application) on rats; format: in vivo; conditions: for minimal effective dose: Rattus norvegicus, po, 48 h
# Experimental: (b) Therapeutic application
# One hour later the n-oleyl cephalin was orally administered. Forty-eight hours after the triton is administered, serum is analyzed for lipids and evaluated against a control group.
# serum lipids = assay: Biochemical screening (unstressed rat); format: in vivo; conditions: oral, serum after 4 h
# Experimental: (c) Biochemical screening
# In accordance with the procedures set forth in Fletcher, M. J., Clin. Chim. […] Four hours later serum was analyzed for lipids and evaluated against a control group.
# mouse = assay: Acute toxicity, mouse; format: in vivo
# Acute toxicity, mouse = format: in vivo; conditions: in vivo
# [3] = background knowledge; cited from earlier work
# [4] = clofibrate, prophylactic, whole test, no single lipid named
# [5] = lowest effective dose, oral, prophylactic
# [6] = oral, 24 h before triton, serum 48 h after triton
# [7] = lowest dose with drop, therapeutic
# [8] = oral, 1 h after triton, serum 48 h after triton
compound,measurement,setting,value
"CCOC(=O)C(C)(C)Oc1ccc(Cl)cc1 [Clofibrate, reference compound]",Dosing ... very effective,[1]; [4],500 mg/kg BW
same,Dosings up to ... ineffective,[1]; [4],up to 250 mg/kg BW
same,LD0 rat,rat,~ 681 mg/kg BW
same,LD50,"Acute toxicity, rat",1100 mg/kg
same,minimal effective dose,"[2]; lowest dose with drop, therapeutic, read-out: Phospholipids Drop from",500 mg/kg
same,minimal effective dose,"[2]; lowest dose with drop, therapeutic, read-out: Total lipids Drop from",250 mg/kg
same,minimal effective dose,"[2]; lowest dose with drop, therapeutic, read-out: Triglycerides Drop from",250 mg/kg
same,Free cholesterol No effect up to,[2]; therapeutic,≤ 500 mg/kg BW
same,Total cholesterol No effect up to,[2]; therapeutic,≤ 500 mg/kg BW
same,minimal effective dose,serum lipids; read-out: Total cholesterol Drop from,50 mg/kg
same,minimal effective dose,serum lipids; read-out: Total lipids Drop from,100 mg/kg
same,minimal effective dose,serum lipids; read-out: Triglycerides Drop from,50 mg/kg
same,LD0 mouse,mouse,~ 1470 mg/kg BW
same,LD50,"Acute toxicity, mouse",2960 mg/kg
CCCCC/C=C\C/C=C\CCCCCCCC(=O)NC1CCCCC1 [cyclohexyllinolamide],"antiarteriosclerotic, antilipemic, metabolic or lipid-reducing effect in words",[3],lipid-reducing effect
n-oleylphosphatidylethanolamine [N-oleylcephalin],Free cholesterol Effect from,[1]; [5],0.10 mg/kg BW
same,Total cholesterol Effect from,[1]; [5],0.01 mg/kg BW
same,Phospholipids E.D.50,[1]; [6],0.62 mg/kg BW
same,Total lipids E.D.50,[1]; [6],0.29 mg/kg BW
same,Triglycerides E.D.50,[1]; [6],0.18 mg/kg BW
same,LD0 rat,rat,> 5000 mg/kg BW
same,LD50 rat,rat,> 5000 mg/kg BW
same,Free cholesterol Drop from,[2]; [7],0.10 mg/kg BW
same,Phospholipids Drop from,[2]; [7],0.10 mg/kg BW
same,Total cholesterol E.D.50,[2]; [8],278.86 mg/kg BW
same,Total lipids E.D.50,[2]; [8],8.49 mg/kg BW
same,Free cholesterol Drop from,serum lipids,50 mg/kg BW
same,Phospholipids Drop from,serum lipids,50 mg/kg BW
same,Total cholesterol Drop from,serum lipids,50 mg/kg BW
same,Total lipids Drop from,serum lipids,50 mg/kg BW
same,Triglycerides Drop from,serum lipids,50 mg/kg BW
same,LD0 mouse,mouse,> 4640 mg/kg BW
same,LD50 mouse,mouse,> 4640 mg/kg BW
